# Test results as given in patent publication US10156560B1, “Locomotive biological machines” (The Board of Trustees of the University of Illinois, priority 2013, dated 2018).
# Entries after “also recorded” stand apart in the source; their conditions may differ.
# Assays:
# Type in all cases: cell-based
# C2C12 muscle strips [1] = experiment: Lifetime of fibrin muscle strip bio-bots (days until fracture)
# Procedure: Similarly, the lifetime of fibrin muscle strip bio-bots (i.e. days until fracture of the muscle strip) was affected by the presence or absence of 50 ng/mL IGF-1 and/or 1 mg/mL aminocaproic acid. There was a significant increase in the fibrin muscle strip lifetime with the addition of 1 mg/mL aminocaproic acid (25±1.15 days) compared to the control of 10% HS (8.75±7.63).
# C2C12 myoblasts [2] = experiment: Compaction and snapping of collagen-based 3D skeletal muscle strips
# Procedure: C2C12 myoblasts were transfected with pAAV-Cag-Chr2-GFP-2A-Puro with Lipofectamine 2000 (Invitrogen, Carlsbad, Calif.) and grown under puromycin (2.5 μg/mL) selection for 2 weeks. Before cell seeding, bio-bots were positioned beam-down in polymerized holders in a 35-mm cell culture dish and aspirated of excess liquid. A liquid suspension of C2C12 skeletal muscle myoblasts and ECM proteins was added around the pillars of the bio-bot and polymerized via gelation of the matrix proteins. Embedded cells exerted traction forces on the fibrous proteins via integrin attachments to compact the matrix into a muscle strip over time, and the capped pillars acted as a physical anchor for the muscle strip to mimic the in vivo musculoskeletal arrangement in which force transmission occurs from a contracting muscle to bone through a connecting tendon. The ECM was a mixture of i) type I collagen or fibrin and ii) Matrigel™, a composition of laminin, entactin, and type IV collagen. Collagen and fibrin were chosen because naturally-derived hydrogels undergo macro-scale compaction when mixed with cells, leading to a substantially higher cell density and unidirectional cell alignment between the posts. For collagen strips, a cooled suspension of liquid type I collagen from rat tail (0.8, 1.4, or 2.0 mg/mL, BD Biosciences) was mixed with equal parts ice-cold growth medium and neutralized with 0.01 N NaOH. Pelleted cells (1.0-10.0×10^6 cells/mL) were resuspended in ice-cold growth medium and mixed with Matrigel™ (30% v/v, BD Biosciences). Liquid neutralized type I collagen was mixed thoroughly with cells (C2C12 myoblasts (ATCC)) and Matrigel™, and the mixtures were added to each holder. For fibrin muscle strips, an ice-cold cell-matrix solution of Matrigel™ (30% of total cell-matrix volume), fibrinogen (4 mg/mL, Sigma-Aldrich), thrombin from bovine plasma (0.5 U/mg fibrinogen, Sigma-Aldrich), and C2C12s suspended in GM at a concentration of 5×10^6 cells/mL were added to each holder. The post/beam assemblies were then incubated at 37° C. to induce collagen/fibrin polymerization, and growth medium was added to each assembly upon gelation. Time-lapsed compaction was captured with a stereomicroscope (MZ FL III, Leica).
# To confirm that gel compaction was caused by traction forces from the cells, muscle strips were treated with 50 μg/mL blebbistatin (FIG. 27A). Blebbistatin blocks myosin II activity in the cells, which prevents inward translation of the traction forces. […] The muscle strips treated with IGF-1 (50 ng/mL) compacted rapidly but snapped near the posts within 24 h (FIG. 27C). Thus, the formation of muscle strips was cell-induced through passive tension around the two posts. […]
# C2C12 myoblasts [3] = experiment: Differentiation, viability (MTS) and proliferation in muscle strips
# Procedure: After 7 days, the myoblasts were induced to differentiate by switching to high-glucose DMEM supplemented with 10% horse serum (Lonza) and 50 ng/mL insulin-like growth factor-1 (IGF-1, Sigma). A protease inhibitor, aminocaproic acid (1 mg/mL, Sigma) was added to the growth and differentiation medium to prevent degradation of the extracellular matrix proteins by the cells. Differentiated, multinucleated myotubes were distributed throughout muscle strips supplemented with IGF-1.
# An MTS assay was used to evaluate cell viability over time. Muscle strips comprising […] and supplemented with IGF-1 and aminocaproic acid were incubated with MTS (Promega) and phenazine methosulfate (Sigma-Aldrich) in DMEM without phenol red for 4 h at 37° C. Absorbance of MTS formazan product formation was measured at 490 nm using a Synergy HT microplate reader (BioTek) for four different time points and normalized to day 0 (day of cell seeding). The relative absorbance of muscle strips indicated a viability of cells within the muscle strip of 85.76±10.74% and 79.71±14.78% after days 6 and 9, respectively.
# C2C12 muscle strips [4] = experiment: Passive tension force of muscle strips from beam deflection
# Excerpt: Using Euler-Bernoulli linear bending theory, a formula was derived relating the observed hydrogel beam deflection to the muscle-generated passive tension force. Assuming negligible rotation in the beam and a small angle approximation, equating the applied moment M to tension P times the moment arm I from the muscle strip to the beam reduced the second-order differential equation to
# [formula] where I is the moment of inertia of the rectangular cross-section and y is the horizontal deflection of the beam. Boundary conditions were applied by assuming zero deflection at ends of the beam (L=0) and maximum deflection δmas at the center (L/2).
# [formula] Beam dimensions, moment arm, and maximum deflection were averaged from 3 measurements of each device using the Measure Tool in ImageJ (NIH). Solving for P yielded the relation:
# Finite element analysis was then used to model and simulate global displacement of the beam and pillars in response to an applied force; the simulated deflection values differed 18-19% from actual measurements.
# To determine an optimal matrix system for engineered muscle functionality, the passive tension forces generated by collagen- and fibrin-based cell-matrix systems were compared. In muscle strips comprising the same number of cells, a significant increase in passive tension in those containing fibrin (629.3±8.2 μN) compared to collagen (534.2±5.8 μN) was observed. Advantageously, fibrin polymerizes relatively quickly when compared to other ECM proteins, and it can undergo large deformations without breaking (Liu et al., 2006, Science 313(5787):634; Janmey et al., 2009, J R Soc Interface 6(30):1-10). […]
# This significant increase in force production was likely due to a greater number of differentiated myotubes in muscle strips supplemented with IGF-1. A normalized stress in the muscle strips with IGF-1 was calculated by dividing the passive tension by the cross-sectional area of the tissue, which averaged 1.2±0.04 mm^2 (n=9). […]
# C2C12 muscle strips [5] = experiment: Electrically paced actuation of fibrin-based muscle strips
# Procedure: To externally control muscle contraction and bio-bot locomotion, a custom-designed setup (Bajaj et al., 2011, Integr Biol (Camb) 3(9):897-909) was used to stimulate reproducible contraction of excitable cells within the muscle strip with a bipolar electrical pulse train (FIGS. 30A and 30B). The output from a waveform generator was amplified through an AD797 inverting amplifier. A capacitor C was added in series to minimize electrolysis of the media by converting the square pulse to a biphasic pulse; the system was then treated as an RC circuit (FIG. 30B). A 35-mm culture dish was modified to allow Pt electrodes of diameter 0.762 mm to pass through the lid of the dish. The average resistance of the electrical stimulation medium (DMEM without serum) was calculated by measuring the time constant τ from the oscilloscope and dividing by C for each volume at 23° C. and 37° C. The conductivity of the medium was measured using a pH/Conductivity meter (Orion 4-Star, Thermo Scientific), at 23° C. and 37° C. During stimulation, the bio-bot was placed in 4 mL of warm electrical stimulation medium between the positive and ground electrodes, and a current was applied perpendicular to the long axis, with stimulation frequencies up to 10 Hz and never exceeding more than half of the sampling frequency, per the Nyquist criterion. Bio-bots were stimulated with bipolar electrical pulses of 20 V amplitude (21.6 V/cm field strength) and 50 ms pulse width. Simultaneous imaging was achieved by positioning the dish on the stage of a stereoscope. Top-view movies were acquired with a stereomicroscope with a digital microscope camera at 9.2 fps. Side-view movies were acquired using a camcorder (Handycam DCR-SR65, Sony) at 30 fps. Electrodes were sterilized in 70% ethanol and rinsed with PBS between experiments.
# Twitch contractions were observed below 8-10 Hz and tetanus above this upper frequency limit.
# A Kelvin-Voigt viscoelasticity model that correlated the observed cyclic displacement to the contractile force was used to extract the active tension generated by IGF-1 supplemented muscle strips in response to electrical stimulation. The active stress generated by the muscle strip was computed as a function of the strain ε(t) and strain rate dε(t)/dt observed in the hydrogel beam with viscosity η. The time-varying displacement data was converted into time-varying strain, and the following equation was used to compute the resulting active stress: […]
# The range of active tension during contraction decreased with increasing stimulation frequency, from a dynamic fluctuation of 198.68 μN during 1 Hz stimulation to 109.48 μN during 4 Hz stimulation. The active tension data followed a positive force-frequency relationship in which the magnitude of the active tension exerted by the muscle increased, even while the range of pillar motion decreased.
compound,measurement,setting,value
"NCCCCCC(=O)O [aminocaproic acid, ε-aminocaproic acid]",fibrin muscle strip lifetime (days until fracture),C2C12 muscle strips [1]; 1 mg/mL,25 ± 1.15 days
same,snapping of collagen muscle strip,C2C12 myoblasts [2]; 1 mg/mL in medium,remained intact
same,time muscle strip remained stable,C2C12 myoblasts [2]; 1 mg/mL in medium,> 14 days
same,snapping of collagen muscle strip,"C2C12 myoblasts [2]; 1 mg/mL in medium, listed as EAC",prevented the muscle strip from snapping
Cc1ccc2c(c1)C(=O)C1(O)CCN(c3ccccc3)C1=N2 (centres unmarked) [blebbistatin],compaction of muscle strip,"C2C12 myoblasts [2]; blebbistatin in medium, 48 hours of culture",lack of compaction; also recorded: prevented its compaction
"IGF-1: insulin-like growth factor 1, a potent mitogen",portion of the fibrin-based muscle strip occupied by cells,C2C12 myoblasts [3]; 50 ng/mL,more than doubled
same,cell proliferation compared to control muscle strips,C2C12 myoblasts [3]; day 9,enhanced cell proliferation
same,increase in passive tension force compared to control without IGF-1,C2C12 muscle strips [4]; fibrin-based muscle strips,70.7%
same,passive tension force,C2C12 muscle strips [4]; fibrin-based muscle strips supplemented with IGF-1,992.7±34.3 μN
same,passive stress,"C2C12 muscle strips [4]; muscle strips with IGF-1, tension divided by cross-sectional area",0.84±0.03 kPa
same,range of active tension during contraction,C2C12 muscle strips [5]; 1 Hz stimulation,198.68 μN
same,range of active tension during contraction,C2C12 muscle strips [5]; 4 Hz stimulation,109.48 μN
same,Output,C2C12 muscle strips [5]; stimulation 1 Hz,1.01 ± 0.003 Contractions/s
same,Output,C2C12 muscle strips [5]; stimulation 2 Hz,2.01 ± 0.01 Contractions/s
same,Output,C2C12 muscle strips [5]; stimulation 4 Hz,3.95 ± 0.05 Contractions/s
same,decrease in days until fracture compared to the 1 mg/mL ACA condition,C2C12 muscle strips [1]; 50 ng/mL,22.0%
same,decrease in days until fracture compared to the control,"C2C12 muscle strips [1]; 50 ng/mL, control 10% HS",51.43%
